A word on the Ki: it is the equilibrium dissociation constant of an inhibitor or competing ligand from its target. One may read the IC50 as the concentration that inhibits the measured activity by half.

Like-named read-outs stand apart in the source and are kept apart here. Square brackets hold non-standard residues; d marks the D form. Peptide text beside a SMILES is read from it. * marks the point of attachment. hPhe = N[CH](CCc1ccccc1)C(=O)O; Cbz = O=C(OCc1ccccc1)*

For test [1], the target named is T1, proteasome from pituitary tissue (X/Y/Z isoform, constitutive proteasome), chymotrypsin-like (ChT-L) activity (Bos taurus, UniProt Q32KL2).
T1 construct: the proteasome from pituitary tissue, representative of the X/Y/Z isoform; from tissue; host or cells: pituitary
The test can be described thus: Inhibition of ChT-L activity of pituitary proteasome (constitutive proteasome). The class given is biochemical. The conditions noted are these: substrate Cbz-GGF-pAB; for Ki: Dixon plots, without preincubation, read-out: Ki (μM) Pituitary Proteasome, ChT-L component; for IC50: read-out: IC50 instead of Ki (†), Pituitary Proteasome, ChT-L component. From the text: (§1) To investigate the possibility that inhibitors specific for the immunoproteasome could be identified, the proteasome from pituitary tissue, representative of the X/Y/Z isoform (i.e., the constitutive proteasome), and the proteasome from spleen tissue, representative of the LMP-2/7/10 isoform (i.e., the immunoproteasome), were each purified to homogeneity. A panel of peptidyl-aldehyde substrate-related inhibitors were then screened for their ability to inhibit the chymotrypsin-like (ChT-L) and branched chain amino acid preferring (BrAAP) activities of these two proteasome preparations.
[…] Determinations were carried out at three substrate concentrations and at six different inhibitor concentrations without preincubation of the enzyme with inhibitors. Substrate concentrations were 0.1 to 0.4 mM for the BrAAP activity of the spleen, and 0.5 to 4.0 mM for the ChT-L activity, and 1.0 to 4.0 mM for all others. The substrate for the BrAAP activity was Cbz-GPALG-pAB, and Cbz-GGF-pAB for the ChT-L activity. Data are averages±standard error, with the number of determinations shown in parentheses.
[…] Determinations were carried out at three substrate concentrations and at six different inhibitor concentrations without preincubation of the enzyme with inhibitors. Substrate concentrations were 0.1 to 0.4 mM for the […] activity of the spleen, and 0.5 to 4.0 mM for the ChT-L activity, and 1.0 to 4.0 mM for all others. The substrate for the BrAAP activity was Cbz-GPALG-pAB, and Cbz-GGF-pAB for the ChT-L activity. Data are averages±standard error, with the number of determinations shown in parentheses. † indicates IC50 instead of Ki. NI indicates no inhibition in the tested range.
[…] Determinations were carried out at three substrate concentrations and at six different inhibitor concentrations without preincubation of the enzyme with inhibitors. Substrate concentrations were 0.1 to 0.4 mM for the BrAAP activity of the spleen, and 0.5 to 4.0 mM for the ChT-L activity, and 1.0 to 4.0 mM for all others. The substrate for the BrAAP activity was Cbz-GPALG-pAB, and Cbz-GGF-pAB for the ChT-L activity. Data are averages±standard error, with the number of determinations shown in parentheses. † indicates IC50 instead of Ki. NI indicates no inhibition in the tested range.

For test [2], the target named is T2, proteasome from spleen tissue (LMP-2/7/10 isoform, immunoproteasome), chymotrypsin-like (ChT-L) activity (UniProt Q3T112).
T2 construct: Ki (μM) Spleen Proteasome, ChT-L component; other: substrate Cbz-GGF-pAB, Dixon plots, without preincubation; other: substrate Cbz-GGF-pAB
T2 sequence (Q3T112 1-276): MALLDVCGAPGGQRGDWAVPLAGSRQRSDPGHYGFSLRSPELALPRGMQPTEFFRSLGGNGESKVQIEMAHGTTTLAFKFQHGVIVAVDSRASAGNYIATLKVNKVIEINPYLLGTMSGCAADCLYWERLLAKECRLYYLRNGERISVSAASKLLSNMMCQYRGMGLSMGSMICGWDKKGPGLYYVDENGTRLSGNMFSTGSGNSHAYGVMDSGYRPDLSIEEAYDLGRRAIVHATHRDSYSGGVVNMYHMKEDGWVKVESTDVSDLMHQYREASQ
Put plainly: Inhibition of ChT-L activity of spleen proteasome (immunoproteasome). The class given is biochemical.
Text: as §1, with “preparations. […] The same was true for Cbz-FL-CHO, the peptide aldehyde version of bortezomib.” for “preparations.”
(§2) Dixon plots were used to obtain Ki values. Determinations were carried out at three substrate concentrations and at six different inhibitor concentrations without preincubation of the enzyme with inhibitors. Substrate concentrations were 0.1 to 0.4 mM for the BrAAP activity of the spleen, and 0.5 to 4.0 mM for the ChT-L activity, and 1.0 to 4.0 mM for all others. The substrate for the BrAAP activity was Cbz-GPALG-pAB, and Cbz-GGF-pAB for the ChT-L activity. Data are averages±standard error, with the number of determinations shown in parentheses.
(§3) Dixon plots were used to obtain Ki values. Determinations were carried out at three substrate concentrations and at six different inhibitor concentrations without preincubation of the enzyme with inhibitors. Substrate concentrations were 0.1 to 0.4 mM for the BrMP activity of the spleen, and 0.5 to 4.0 mM for the ChT-L activity, and 1.0 to 4.0 mM for all others. The substrate for the BrAAP activity was Cbz-GPALG-pAB, and Cbz-GGF-pAB for the ChT-L activity. Data are averages±standard error, with the number of determinations shown in parentheses. † indicates IC50 instead of Ki. NI indicates no inhibition in the tested range.
as §3, with “BrAAP” for “BrMP”

Test [3] concerns NCI-H929 human myeloma cells. The test can be described thus: Proteasome inhibitor-induced apoptosis, ELISA of apoptotic nuclear DNA fragmentation. The class given is cell-based. Conditions: 18 hours. On the procedure:
(§4) Cultured NCI-H929 human myeloma cells, IM-9 human B-lymphoblasts, HPAC human pancreatic adenocarcinoma cells, and Hs 294T human melanoma cells were exposed to vehicle, 5 nM bortezomib (PS-341), or 50 μM Cbz-LnL-CHO for 18 hours. Apoptosis was evaluated using an enzyme-linked immunosorbent assay that detects apoptotic nuclear DNA fragmentation. Cell death is expressed as the fold-increase in apoptosis over the vehicle control, which was arbitrarily set at 1.0. Referring now to FIG. 2, the effect of PS-341 is shown in the open bar graphs, while Cbz-LnL-CHO (IPSI-001) is in the stippled bar graphs. The mean and standard error of the mean are shown for each condition from four independent experiments.

Test [4] deals with IM-9 human B-lymphoblasts. The test is described as above. It is filed as cell-based. Conditions: 18 hours. How it is done: as §4
Test [5] has as its system proteasome from spleen tissue (LMP-2/7/10 isoform, immunoproteasome), branched chain amino acid preferring (BrAAP) activity. The test can be described thus: Inhibition of BrAAP activity of spleen proteasome (immunoproteasome). The class given is biochemical. Conditions: spleen versus pituitary proteasome, in vitro.
Text: as §1, with “preparations. […] The same was true for Cbz-FL-CHO, the peptide aldehyde version of bortezomib.” for “preparations.”
as §2
Dixon plots were used to obtain Ki values. […]

Test [6] relates to proteasome from spleen tissue (LMP-2/7/10 isoform, immunoproteasome), chymotrypsin-like (ChT-L) activity. The test can be described thus: Inhibition of ChT-L activity of spleen proteasome (immunoproteasome). The conditions noted are these: spleen versus pituitary proteasome, in vitro. It is filed as biochemical.
Text: as §1, with “preparations. […] The same was true for Cbz-FL-CHO, the peptide aldehyde version of bortezomib.” for “preparations.”
as §2, §3
as §3, with “BrAAP” for “BrMP”

Test [7] relates to Hs 294T human melanoma cells. Put plainly: Proteasome inhibitor-induced apoptosis, ELISA of apoptotic nuclear DNA fragmentation. The conditions noted are these: 5 nM, 18 hours. The class given is cell-based. How it is done: as §4
In general terms: ELISA stands for enzyme-linked immunosorbent assay.

In test [8] the test system is HPAC human pancreatic adenocarcinoma cells. The test is described as above. It is filed as cell-based. Conditions: 5 nM, 18 hours. How it is done:
as §4

Test [9] has as its system myeloma. The conditions noted are these: phase II study that led to FDA approval; cited from earlier work.
The mark [10] stands for this setting: substrate Cbz-GGF-pAB, Dixon plots, without preincubation; read-out: Ki (μM) Spleen Proteasome, ChT-L component.
The mark [11] stands for this setting: read-out: Ki (μM) Spleen Proteasome, ChT-L component; substrate Cbz-GGF-pAB, Dixon plots, without preincubation.

`CC(C)C[C@@H](C=O)NC(=O)[C@H](CC(C)C)NC(=O)[C@H](CC(C)C)NC(=O)OCc1ccccc1` [Cbz-LLL-CHO, reference compound] (Cbz-Leu-Leu-Leu-aldehyde): the Ki was found to be 6.9 ± 0.84 µM in test [1] and 5.1 ± 0.9 µM in test [2] (setting [10]).
The matching figures for `CC(C)CC(C=O)NC(=O)C(C)NC(=O)C(CC(C)C)NC(=O)OCc1ccccc1` (stereo not drawn) [Cbz-LAL-CHO, reference compound] (Cbz-Leu-Ala-Leu-aldehyde; configuration not given here): 0.82 ± 0.15 µM and 1.45 ± 1.05 µM.
In the same order, the values of `O=CC(Cc1ccccc1)NC(=O)C(Cc1ccccc1)NC(=O)OCc1ccccc1` (stereo not drawn) [Cbz-FF-CHO, N-carbobenzyloxy-phenylalanyl-phenylalanylal] (Cbz-Phe-Phe-aldehyde; configuration not given here) are 56 ± 4.4 µM and 4 ± 0.27 µM.
As for `CC(C)CC(NC(=O)OCc1ccccc1)C(=O)NC(C=O)Cc1ccccc1` (stereo not drawn) [Cbz-LF-CHO, N-carbobenzyloxy-leucyl-phenylalanylal] (Cbz-Leu-Phe-aldehyde; configuration not given here), the IC50 in [1] came out at 154 µM. Moreover, in test [2] (setting [10]), the Ki was 5.6 ± 0.2 µM.
As for `CCCCC(C=O)NC(=O)C(CC(C)C)NC(=O)OCc1ccccc1` (stereo not drawn) [Cbz-LnL-CHO, N-carbobenzyloxy-leucyl-norleucinal], the “induction of apoptosis (fold-increase over the vehicle control)” value in test [3] (NCI-H929, 50 μM) is “induces significant apoptosis”; in test [4] (IM-9, 50 μM), “induces significant apoptosis”. Also, the inhibition constant (Ki) was determined as 105 ± 1.3 µM in [1] and 1.03 ± 0.17 µM in [2] (setting [10]). Further, the “preference for the LMP-containing BrAAP proteasome activity” value in [5] is given as “greater than 160 fold”. The “preference for the LMP-containing ChT-L proteasome activity” value in test [6] is reported as “greater than 100 fold”.
As for `CC(C)C[C@H](NC(=O)[C@H](Cc1ccccc1)NC(=O)c1cnccn1)B(O)O` [Bortezomib, reference compound], the “induction of apoptosis (fold-increase over the vehicle control)” value is “induces apoptosis roughly equally in all of the cell lines tested” in test [7]; “induces apoptosis roughly equally in all of the cell lines tested” in test [8]; “induces apoptosis roughly equally in all of the cell lines tested” in [3] (NCI-H929, 5 nM); “induces apoptosis roughly equally in all of the cell lines tested” in test [4] (IM-9, 5 nM). The “patients with myeloma with partial responses or better” value in test [9] is given as 28%.
For the compound `O=CC(Cc1ccccc1)NC(=O)C(Cc1ccccc1)NC(=O)C1CCCN1C(=O)CNC(=O)OCc1ccccc1` (stereo not drawn) [Cbz-GPFF-CHO, N-carbobenzyloxy-glycyl-prolyl-phenylalanyl-phenylalanylal] (Cbz-GPFF-aldehyde; configuration not given here), the values for the Ki in test [1] and in [2] (setting [11]) were 58 ± 1.8 µM and 5.6 ± 1.1 µM, respectively.
As to `CC(C)CC(NC(=O)OCc1ccccc1)C(=O)NC(CC(C)C)C(=O)NC(C=O)Cc1ccccc1` (stereo not drawn) [Cbz-LLF-CHO, N-carbobenzyloxy-leucyl-leucyl-phenylalanylal] (Cbz-Leu-Leu-Phe-aldehyde; configuration not given here), the figures for the Ki in test [1] and in [2] (setting [11]) were 1.6 ± 0.5 µM and 5.97 ± 1.4 µM, respectively.
For `O=CC(Cc1ccccc1)NC(=O)C(Cc1ccccc1)NC(=O)CNC(=O)OCc1ccccc1` (stereo not drawn) [Cbz-GFF-CHO, N-carbobenzyloxy-glycyl-phenylalanyl-phenylalanylal] (Cbz-Gly-Phe-Phe-aldehyde; configuration not given here), the IC50 in [1] was found to be 2.7 µM; in [2] (read-out: IC50 instead of Ki (†), Spleen Proteasome, ChT-L component; substrate Cbz-GGF-pAB), 1.03 µM.
Take `CC(C)CC(C=O)NC(=O)C(Cc1ccccc1)NC(=O)OCc1ccccc1` (stereo not drawn) [Cbz-FL-CHO, reference compound] (Cbz-Phe-Leu-aldehyde; configuration not given here): the Ki was determined as 5.55 ± 0.47 µM in [1] and 2.1 ± 0.29 µM in test [2] (setting [10]).
For `O=CC(Cc1ccccc1)NC(=O)C(CCc1ccccc1)NC(=O)OCc1ccccc1` (stereo not drawn) [Cbz-hFF-CHO, N-carbobenzyloxy-homophenylalanyl-phenylalanylal] (Cbz-[hPhe]-Phe-aldehyde; configuration not given here), the IC50 in test [1] amounted to 40 µM. Moreover, the Ki in test [2] (setting [10]) worked out at 2.74 ± 0.33 µM.
For `CC(NC(=O)C1CCCN1C(=O)CNC(=O)OCc1ccccc1)C(=O)NC(C=O)Cc1ccccc1` (stereo not drawn) [Cbz-GPAF-CHO, N-carbobenzyloxy-glycyl-prolyl-alanyl-phenylalanylal] (Cbz-GPAF-aldehyde; configuration not given here), the Ki in [1] came to 460 ± 66 µM; in [2] (setting [11]), 8.4 ± 0.52 µM.
On to `CC(NC(=O)OCc1ccccc1)C(=O)NC(C=O)Cc1ccccc1` (stereo not drawn) [Cbz-AF-CHO, N-carbobenzyloxy-alanyl-phenylalanylal], for which the IC50 turned out to be 380 µM in test [1] and 24 µM in [2] (substrate Cbz-GGF-pAB; read-out: IC50 instead of Ki (†), Spleen Proteasome, ChT-L component).

The record behind these values is patent US7589066B2, “Potent and specific immunoproteasome inhibitors” (The University of North Carolina at Chapel Hill, priority 2005, dated 2009).
